In PMC9721424, “Novel N-methylsulfonyl-indole derivatives: biological activity and COX-2/5-LOX inhibitory effect with improved gastro protective profile and reduced cardio vascular risks” (Journal of Enzyme Inhibition and Medicinal Chemistry, 2022):
“And” between values parts separate entries of the source, which are not always exact repeats. Equal values may be shown once. Read-outs that look alike come from different tables or passages of the source.

Assays:
5-LOX enzyme = biological target: T1, 5-LOX enzyme (Homo sapiens, UniProt P09917); assay: 5-LOX inhibition, Human Lipoxygenase Inhibitor Screening Assay (EIA) kit; format: biochemical
T1 construct: purchased Cayman Chemical K980-100
T1 sequence (P09917 1-674): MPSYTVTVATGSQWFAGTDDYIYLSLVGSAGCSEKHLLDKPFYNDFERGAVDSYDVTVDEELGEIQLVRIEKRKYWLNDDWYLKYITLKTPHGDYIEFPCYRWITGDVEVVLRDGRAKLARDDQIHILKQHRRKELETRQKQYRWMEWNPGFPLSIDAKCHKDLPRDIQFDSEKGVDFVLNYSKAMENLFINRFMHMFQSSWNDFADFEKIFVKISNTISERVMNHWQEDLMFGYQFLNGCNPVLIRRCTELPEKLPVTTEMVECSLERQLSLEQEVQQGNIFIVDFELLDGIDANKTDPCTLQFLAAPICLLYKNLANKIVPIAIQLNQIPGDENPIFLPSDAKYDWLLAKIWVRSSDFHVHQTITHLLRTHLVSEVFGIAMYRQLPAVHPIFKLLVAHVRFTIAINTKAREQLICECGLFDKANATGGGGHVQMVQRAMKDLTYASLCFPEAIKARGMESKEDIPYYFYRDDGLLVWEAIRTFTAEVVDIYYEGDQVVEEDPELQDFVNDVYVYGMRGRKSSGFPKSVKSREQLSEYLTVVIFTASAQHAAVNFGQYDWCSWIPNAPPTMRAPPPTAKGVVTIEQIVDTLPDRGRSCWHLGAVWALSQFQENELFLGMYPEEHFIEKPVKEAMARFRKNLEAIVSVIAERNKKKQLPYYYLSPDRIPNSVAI
Protocol: The ability of the test compounds to inhibit the 5-LOX enzyme (IC50 value, μM) was detected using the Cayman Human Lipoxygenase Inhibitor Screening Assay (EIA) kit (catalog no. K980-100, Cayman Chemical). The IC50 values of test compounds were measured in µM according to the manufacturer’s instructions and reported method.

DPPH free radical assay = format: biochemical; conditions: 540 nm, relative to Trolox; for DPPH test results (µM trolox equivalent/ 1mg sample ± SD): 30 min
Protocol: Preparation of samples was occurred at the following concentrations: Samples 3a, 4a, 5b, 5d and 5e at final concentrations of 0.5 mg/ml in methanol: DMSO 9:1 v/v. Samples 4b and 4d at final concentrations 0.025 mg/ml in methanol: DMSO 9:1 v/v, sample 5a at final concentrations 0.25 mg/ml in methanol: DMSO 9:1 v/v, Sample 4c, 5c and 4e at final concentrations 0.05 mg/ml in methanol: DMSO 9:1 v/v, sample 3b at final concentration 0.75 mg/ml methanol: DMSO 9:1 v/v. A stock solution of 100 µM concentration of Trolox, a standard used in this experiment, was prepared in methanol from which seven concentrations were prepared, including 50, 40, 30, 20, 15, 10 and 5 µM.
The DPPH (2,2-diphenyl-1-picryl-hydrazyl-hydrate) free radical assay was carried out according to the method of Boly et al. 2016[39]. Briefly, freshly prepared DPPH reagent (100 µl, 0.1% in methanol) was added to 100 µl of the sample on 96 well plates (n = 6). The reaction was incubated at room temp for 30 min in the dark. After completion of the incubation time, the reduction in DPPH colour intensity was measured at 540 nm. Data obtained was represented as means ± SD, according to the following equation, percentage inhibition = [(Average absorbance of blank – average absorbance of the test)/(Average absorbance of blank)] *100. The results were recorded using a microplate reader, FluoStar Omega.
Microsoft Excel® was used to analyse the obtained results. The IC50 values were calculated using Graph pad Prism 6® by converting the concentrations to their logarithmic value and selecting the non-linear inhibitor regression equation (log (inhibitor) vs. normalised response – variable slope equation). The methods used and the final test report (R-SO7320) were obtained from Nawah Scientific.

COX-2 = biological target: T2, COX-2 (Ovis aries, UniProt P79208); assay: COX-2 inhibition, enzyme immune assay (EIA) kit; format: biochemical, ovine; conditions: for S.I (IC50 COX-1/IC50 COX-2): COX-2 selectivity index; for SI: lab report, COX1/COX2
T2 sequence (P79208 17-603): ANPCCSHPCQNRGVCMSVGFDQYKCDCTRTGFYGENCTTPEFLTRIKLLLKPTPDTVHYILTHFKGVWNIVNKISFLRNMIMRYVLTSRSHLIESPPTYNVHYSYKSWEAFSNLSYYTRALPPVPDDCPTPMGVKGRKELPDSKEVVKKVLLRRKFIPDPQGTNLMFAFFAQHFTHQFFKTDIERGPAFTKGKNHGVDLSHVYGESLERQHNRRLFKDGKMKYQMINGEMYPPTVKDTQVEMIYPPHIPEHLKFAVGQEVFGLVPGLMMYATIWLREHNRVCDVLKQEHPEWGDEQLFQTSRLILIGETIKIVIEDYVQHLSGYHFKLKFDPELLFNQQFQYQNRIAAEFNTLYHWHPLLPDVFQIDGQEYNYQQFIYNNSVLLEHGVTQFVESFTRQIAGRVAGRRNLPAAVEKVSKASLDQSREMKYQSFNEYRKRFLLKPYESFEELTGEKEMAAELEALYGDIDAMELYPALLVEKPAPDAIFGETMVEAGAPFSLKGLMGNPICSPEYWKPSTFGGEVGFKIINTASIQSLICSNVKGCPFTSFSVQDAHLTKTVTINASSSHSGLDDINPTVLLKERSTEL

ovine COX-1 = biological target: T3, ovine COX-1 (Ovis aries, UniProt P05979); assay: COX-1 inhibition, enzyme immune assay (EIA) kit
T3 sequence (P05979 25-600): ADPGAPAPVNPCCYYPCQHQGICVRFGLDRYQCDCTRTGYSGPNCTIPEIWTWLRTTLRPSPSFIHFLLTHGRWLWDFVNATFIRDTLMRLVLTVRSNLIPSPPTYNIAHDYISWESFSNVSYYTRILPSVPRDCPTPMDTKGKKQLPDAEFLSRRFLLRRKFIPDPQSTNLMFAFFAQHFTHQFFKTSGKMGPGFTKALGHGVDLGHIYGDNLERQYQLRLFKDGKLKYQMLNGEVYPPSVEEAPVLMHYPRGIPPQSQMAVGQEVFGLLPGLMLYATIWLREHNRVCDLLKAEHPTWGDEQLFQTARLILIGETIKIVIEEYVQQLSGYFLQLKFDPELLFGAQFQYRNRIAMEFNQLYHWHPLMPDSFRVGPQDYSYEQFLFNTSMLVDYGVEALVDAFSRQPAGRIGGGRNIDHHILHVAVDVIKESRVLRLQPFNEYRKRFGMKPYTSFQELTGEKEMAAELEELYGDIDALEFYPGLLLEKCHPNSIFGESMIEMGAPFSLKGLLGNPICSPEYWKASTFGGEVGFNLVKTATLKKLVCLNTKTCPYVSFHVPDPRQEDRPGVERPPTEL
From the text: Colorimetric enzyme immunoassay (EIA) kits were done to screen for the isozyme-specific inhibition.

SMILES	IC50 (5-LOX enzyme) [µM]	5-LOX %inh (5-LOX enzyme; conc 0.1 (μM)) [%]	5-LOX %inh (5-LOX enzyme; conc 1 (μM)) [%]	5-LOX %inh (5-LOX enzyme; conc 10 (μM)) [%]	5-LOX %inh (5-LOX enzyme; conc 100 (μM)) [%]	IC50 (5-LOX enzyme; lab report) [µM]	DPPH test results (µM trolox equivalent/ 1mg sample ± SD) (DPPH free radical assay)	S.I (IC50 COX-1/IC50 COX-2) (COX-2)	SI (COX-2)	melting point [°C]	COX1 %inh (ovine COX-1; conc 0.1 (μM)) [%]	COX1 %inh (ovine COX-1; conc 1 (μM)) [%]	COX1 %inh (ovine COX-1; conc 10 (μM)) [%]	COX1 %inh (ovine COX-1; conc 100 (μM)) [%]	IC50 (ovine COX-1; read-out: IC50 COX-1) [µM]	IC50 (ovine COX-1; IC50 COX-1) [µM]	DPPH anti-oxidant activity (DPPH free radical assay; values in text)
COc1ccc(N2CC(=O)S/C2=N\N=C\c2cn(S(C)(=O)=O)c3ccccc23)cc1 [Compound 5e]	6.65 ± 0.35	11.6	24.1	53	80.8	6.65 ± 0.35	13.22 ± 1.89 µM trolox equivalent/ 1mg sample	9.72 and 9.73	9.726	273 to 275	3.76	13.1	20	68.5	47.5 ± 1.35	–	–
CS(=O)(=O)n1cc(/C=N/NC(N)=S)c2ccccc21 [Compound 4a, (E)-2{[1-(methylsulfonyl)-1H-indol-3yl]methylene}-hydrazine-1-carbothioamide]	2.31 ± 0.12	11.4	43.6	69	90.3	2.31 ± 0.12	24.55 ± 1.61 µM trolox equivalent/ 1mg sample	2.80	2.799	178 to 180	7.54	18.6	44	77.6	–	11.3 ± 0.32	–
CS(=O)(=O)n1cc(/C=N/N=C2\SC(=O)CN2c2ccccc2)c2ccccc21 [Compound 5c]	79.4 ± 4.2	2.32	5.84	13	66.7	–	707.52 ± 49.91 µM trolox equivalent/ 1mg sample	3.63	3.628	260 to 262	4.55	10.5	27.9	72.1	29.2 ± 0.83	–	707.52 µM Trolox equivalent/mg and 707.5 µM Trolox equivalent/mg
